From paper PMC2360206 (British Journal of Cancer, 2006)
Entries after “also recorded” stand apart in the source; their conditions may differ.

How the values were obtained:
plasma proteins = tested on: plasma proteins; parameters: method as in Vita et al, 2005; details: primarily albumin; ref Vita et al, 2005; cited from earlier work
[1] = tested on: Urinary retinol binding protein; assay: Urinary retinol-binding protein, marker of renal tubular damage; assay type: in vivo, human; details: range 0.10–100.0
Experimental: In an attempt to understand further the pathogenesis of these biochemical toxicities, three patients were studied more intensively. Urinary retinol-binding protein (RBP), a marker of renal tubular damage was measured in conjunction with functional renal imaging (MAG3 renograms) to estimate renal blood flow pretreatment on days 3 and 14. […] This was associated with bilateral increases in renal parenchymal retention on day 3 on MAG3 scans, which reverted to normal by day 14 (see Figure 1). […] There were no consistent changes in urinary RBP in any of these patients (Table 3).

[2] = parameters: method as in Pierga et al, 2003; details: for 5 days, twice-daily oral schedule; ref Pierga et al, 2003; cited from earlier work
[3] = parameters: method as in earlier work; details: exposure over a 24-h period, preclinical data, ref De la Motte and Gianella-Borradori, 2004, Whittaker et al, Tang et al, 2005; cited from earlier work
Cdk4 = details: background statement, no reference given; cited from earlier work
[4] = 28 days treatment in rodents; no reference given; cited from earlier work
[5] = Phase I toxicity (NCI CTC v2.0) in patients; assay type: in vivo, human; details: for No. with grade 3 & 4 ALT increased / No. with grade 3 & 4 AST increased / No. with grade 3 & 4 Alk Phos increase / No. with grade 3 & 4 Anorexia / No. with grade 3 & 4 Bilirubin increase / No. with grade 3 & 4 CKMB increase / No. with grade 3 & 4 Fatigue / No. with grade 3 & 4 Hyperglycaemia / No. with grade 3 & 4 Hypokalemia / No. with grade 3 & 4 Hyponatraemia / No. with grade 3 & 4 Hypotension / No. with grade 3 & 4 Lymphopenia / No. with grade 3 & 4 Rash / No. with grade 3 & 4 adverse events / No. with grade 3 & 4 γ GT increase: first course; for Patients with derangements in liver biochemistry (γGT and ALP elevations): 7-day treatment period
Source text: Dose-limiting toxicity (DLT) was defined as drug-related toxicity in the first cycle, including grade 4 neutropenia for 7 days or more, neutropenic fever, platelet count <25 × 10^9 l^−1 and/or non-haematological toxicity⩾grade 3. This definition excluded nausea and vomiting subsequently responding to antiemetic therapy and reversible grade 3 increases in liver transaminases. The maximum tolerated dose (MTD) was defined as a dose below which DLT occurred in more than 30% of the patients. Toxicities were evaluated according to the National Cancer Institute Common Toxicity Criteria, version 2.0.
(§1) Before commencing treatment, a complete medical history was taken and physical examination was performed. The following pretreatment baseline examinations were performed within 4 weeks of starting treatment: full blood count, including white blood cell differential; reticulocyte count, haptoglobin, prothrombin time and Coombs test; serum biochemistry, including sodium, potassium, urea, creatinine, calcium, phosphorus, creatine kinase and isoenzymes, total protein, albumin, bilirubin (direct and total), alkaline phosphatase (ALP), alanine aminotransferase (ALT), aspartate aminotransferase (AST), γ-glutamyl transferase (γGT), lactate dehydrogenase and uric acid; urinalysis; pregnancy test, electrocardiogram and a chest X-ray. Weekly evaluations included history, physical examination, toxicity assessment according to the CTC criteria version 2.0 and full blood count and serum chemistries. Radiographic assessment of tumour was performed within 3 weeks before the patient starting treatment and after every two cycles, according to standard RECIST methodology. Patients were taken off protocol upon disease progression, unacceptable toxicity, investigator discretion, serious violation of protocol or at their own request, and were followed for 28 days after the last administration of the study drug.
In addition, more intensive blood chemistry testing was performed on days 1, 3, 5 and 7.

[6] = tested on: Retinoblastoma phosphorylation and cyclin D1 levels in peripheral blood mononuclear cells; assay: Pharmacodynamics in peripheral blood mononuclear cells (western blot); assay type: in vivo, human; details: peripheral blood mononuclear cells of patients, first cycle
Experimental: Whole blood was collected from patients at selected time points into lithium–heparin Vacutainer® tubes (Vacutainer, BD, Franklin Lakes, NJ, USA). Each tube was inverted several times to ensure thorough mixing and then mixed with sterile 0.9% saline at a ratio of 1:1. This was then layered over ficol (Lymphoprep® Nycomed, Oslo, Norway) and centrifuged at 1200 r.p.m. (400 g equivalent) at 18°C for 30 min. The resulting mononuclear cell layer was then removed and resuspended in 0.9% NaCl. Cell pellets were obtained by centrifugation (600 g) and flash frozen in liquid nitrogen. Mononuclear cells were then stored at −70°C in labelled cryovials until further analysis.
Cell pellets were treated with lysis buffer (50 mM Tris–HCl, 150 mM NaCl, pH 7.5, 1% NP40, 2 mM PMSF, 10 μg ml^−1 aprotinin, 10 μg ml^−1 leupeptin, 1 mM activated sodium orthovanadate, 1 mM sodium fluoride and 10 mM β-glycerophosphate) for 30 min on ice. Samples (20–100 μg of protein) were heat-denatured in Laemmli sample buffer (10% glycerol, 5% β-mercaptoethanol, 2% sodium dodecyl sulphate (SDS), 62.5 mM Tris (pH 6.8), 0.05% bromphenol blue, final concentrations) and separated by SDS—polyacrylamide gel electrophoresis (PAGE) using pre-cast 10 or 15-well 20 or 10% Tris–glycine polyacrylamide gels (Invitrogen, Netherlands). […]

Cdk6 = details: background statement, no reference given; cited from earlier work
malignant solid tumour = assay: Antitumour activity in patients (RECIST); assay type: in vivo, human; details: for Patients with stable disease after course 2: progressed by course 4
Experimental: as §1

[7] = same patient, 800 mg b.i.d., course 2

CC[C@H](CO)Nc1nc(NCc2ccccc2)c2ncn(C(C)C)c2n1 [Seliciclib]
Bound to plasma proteins (plasma proteins): 90%
Urinary retinol binding protein ([1]; Patient 20, Day 3, 800 mg b.i.d.): 59.2 mg/mol creatinine
Urinary retinol binding protein ([1]; Patient 20, Day 14, 800 mg b.i.d.): 20.8 mg/mol creatinine
Urinary retinol binding protein ([1]; Patient 21, Day 3, 800 mg b.i.d.): 44.7 mg/mol creatinine
Urinary retinol binding protein ([1]; Patient 21, Day 14, 800 mg b.i.d.): 25.7 mg/mol creatinine
Urinary retinol binding protein ([1]; Patient 22, Day 3, 800 mg b.i.d.): 7.9 mg/mol creatinine
Urinary retinol binding protein ([1]; Patient 22, Day 14, 800 mg b.i.d.): 40.1 mg/mol creatinine
Recommended phase II dose [2]: 2500 mg per day
concentration range achieving clinically relevant biological effects [3]: 7.9–30.2 μM
Inhibition of Cdk4 (Cdk4): only a weak inhibitor
Preclinical toxicology findings [4]: anaemia, leucocytosis, bone marrow hyperplasia, polydipsia, polyuria and gastric ulceration
No. with grade 3 & 4 ALT increased ([5]; 100 mg b.i.d, 3 subjects): 0
No. with grade 3 & 4 AST increased ([5]; 100 mg b.i.d, 3 subjects): 0
No. with grade 3 & 4 Alk Phos increase ([5]; 100 mg b.i.d, 3 subjects): 0
No. with grade 3 & 4 Anorexia ([5]; 100 mg b.i.d, 3 subjects): 0
No. with grade 3 & 4 Bilirubin increase ([5]; 100 mg b.i.d, 3 subjects): 0
No. with grade 3 & 4 CKMB increase ([5]; 100 mg b.i.d, 3 subjects): 0
No. with grade 3 & 4 Fatigue ([5]; 100 mg b.i.d, 3 subjects): 0
No. with grade 3 & 4 Hyperglycaemia ([5]; 100 mg b.i.d, 3 subjects): 0
No. with grade 3 & 4 Hypokalemia ([5]; 100 mg b.i.d, 3 subjects): 0
No. with grade 3 & 4 Hyponatraemia ([5]; 100 mg b.i.d, 3 subjects): 0
No. with grade 3 & 4 Hypotension ([5]; 100 mg b.i.d, 3 subjects): 0
No. with grade 3 & 4 Lymphopenia ([5]; 100 mg b.i.d, 3 subjects): 0
No. with grade 3 & 4 Rash ([5]; 100 mg b.i.d, 3 subjects): 0
No. with grade 3 & 4 adverse events ([5]; 100 mg b.i.d, 3 subjects): 0
No. with grade 3 & 4 γ GT increase ([5]; 100 mg b.i.d, 3 subjects): 0
Toxicity at the 100 mg dose level ([5]; 100 mg b.i.d., three patients): No significant toxicity
No. with grade 3 & 4 ALT increased ([5]; 200 mg b.i.d, 6 subjects): 1
No. with grade 3 & 4 AST increased ([5]; 200 mg b.i.d, 6 subjects): 1
No. with grade 3 & 4 Alk Phos increase ([5]; 200 mg b.i.d, 6 subjects): 1
No. with grade 3 & 4 Anorexia ([5]; 200 mg b.i.d, 6 subjects): 0
No. with grade 3 & 4 Bilirubin increase ([5]; 200 mg b.i.d, 6 subjects): 1
No. with grade 3 & 4 CKMB increase ([5]; 200 mg b.i.d, 6 subjects): 1
No. with grade 3 & 4 Fatigue ([5]; 200 mg b.i.d, 6 subjects): 0
No. with grade 3 & 4 Hyperglycaemia ([5]; 200 mg b.i.d, 6 subjects): 0
No. with grade 3 & 4 Hypokalemia ([5]; 200 mg b.i.d, 6 subjects): 0
No. with grade 3 & 4 Hyponatraemia ([5]; 200 mg b.i.d, 6 subjects): 0
No. with grade 3 & 4 Hypotension ([5]; 200 mg b.i.d, 6 subjects): 0
No. with grade 3 & 4 Lymphopenia ([5]; 200 mg b.i.d, 6 subjects): 0
No. with grade 3 & 4 Rash ([5]; 200 mg b.i.d, 6 subjects): 0
No. with grade 3 & 4 adverse events ([5]; 200 mg b.i.d, 6 subjects): 2
No. with grade 3 & 4 γ GT increase ([5]; 200 mg b.i.d, 6 subjects): 1
Patients with derangements in liver biochemistry (γGT and ALP elevations) ([5]; 200 mg b.i.d.): 4 out of 6
No. with grade 3 & 4 ALT increased ([5]; 800 mg b.i.d, 12 subjects): 0
No. with grade 3 & 4 AST increased ([5]; 800 mg b.i.d, 12 subjects): 0
No. with grade 3 & 4 Alk Phos increase ([5]; 800 mg b.i.d, 12 subjects): 0
No. with grade 3 & 4 Anorexia ([5]; 800 mg b.i.d, 12 subjects): 1
No. with grade 3 & 4 Bilirubin increase ([5]; 800 mg b.i.d, 12 subjects): 0
No. with grade 3 & 4 CKMB increase ([5]; 800 mg b.i.d, 12 subjects): 0
No. with grade 3 & 4 Fatigue ([5]; 800 mg b.i.d, 12 subjects): 1
No. with grade 3 & 4 Hyperglycaemia ([5]; 800 mg b.i.d, 12 subjects): 1
No. with grade 3 & 4 Hypokalemia ([5]; 800 mg b.i.d, 12 subjects): 3
No. with grade 3 & 4 Hyponatraemia ([5]; 800 mg b.i.d, 12 subjects): 1
No. with grade 3 & 4 Hypotension ([5]; 800 mg b.i.d, 12 subjects): 1
No. with grade 3 & 4 Lymphopenia ([5]; 800 mg b.i.d, 12 subjects): 1
No. with grade 3 & 4 Rash ([5]; 800 mg b.i.d, 12 subjects): 1
No. with grade 3 & 4 adverse events ([5]; 800 mg b.i.d, 12 subjects): 7
No. with grade 3 & 4 γ GT increase ([5]; 800 mg b.i.d, 12 subjects): 3
Patients with hypokalaemia (<3.0 mmol l^−1) ([5]; 800 mg b.i.d.): five of 12
Patients with seliciclib-induced hyperglycaemia ([5]; 800 mg b.i.d.): five and five of 12
Dose-limiting toxicities ([5]; 800 mg b.i.d. p.o., 7 days every 21 days): grade 3 fatigue, grade 3 skin rash, grade 3 hyponatraemia and grade 4 hypokalaemia
Patients with derangements in liver biochemistry (γGT and ALP elevations) ([5]; 800 mg b.i.d.): 10 out of 12
Patients with grade 1 hypokalaemia ([5]; 800 mg b.i.d., 12 patients): two
Patients with grade 3 hypokalaemia ([5]; 800 mg b.i.d., 12 patients): two
Patients with grade 4 hypokalaemia ([5]; 800 mg b.i.d., 12 patients): one
Patients who experienced nausea ([5]; 800 mg dose level, not dose-limiting): 11 of the 12
Overall haematological toxicity ([5]; all dose levels): mild
Patients with seliciclib-related DLTs ([5]; final six patients treated at 800 mg): Four of the final six
Serum potassium (lowest level) ([5]; one patient, 800 mg b.i.d., day 7 of course 1): 2.2 mmol/L
Blood pressure (hypotension) [5, 7]: 82/52
Serum potassium nadir [5, 7]: 2.5 mmol/L
Serum sodium (hyponatraemia) [5, 7]: 127 mmol/L
Creatinine ([5]; same patient, 800 mg b.i.d., course 2, normal range <110): 130 µmol/L
Alterations of retinoblastoma phosphorylation and cyclin D1 levels [6]: not demonstrated; also recorded: No reliably detectable alterations
Inhibition of Cdk6 (Cdk6): only a weak inhibitor
Patients with stable disease after course 2 (malignant solid tumour; 100 mg b.i.d.): Two of three
Patients with stable disease after course 2 (malignant solid tumour; 200 mg b.i.d.): two of six
Patients with stable disease after course 2 (malignant solid tumour; 800 mg b.i.d.): three of 12
Objective tumour responses (malignant solid tumour; all dose levels): No objective tumour responses
Patients with disease stabilisation (malignant solid tumour; all dose levels, 21 treated patients): eight
Duration of disease stabilisation (malignant solid tumour; one patient with ovarian cancer, six courses): 18 weeks
